Laboratory results as given in patent US11597726B2 (Certego Therapeutics Inc., priority 2020, dated 2023).
Entries after “also recorded” stand apart in the source; their conditions may differ. Like-named read-outs stand apart in the source and are kept apart here.

What was measured:
[1] = human doses equivalent to the mouse 6 mg/kg dose; cited from earlier work
[2] = tested on: combined delta, theta and alpha activity; conditions: 160 minutes after the first treatment; cited from earlier work
mouse = test: Forced swim test; format: in vivo; conditions: single dose 10 mg/kg, 1 hour and 24 hours after drug delivery, 6 min forced swim
Description: The forced swim test is a frequently used behavioral protocol with a well-established therapeutic predictability for a broad range of antidepressants including ketamine (Porsolt et al. 1977; Cryan and Mombereau 2004; Cryan et al. 2005; Lucki et al. 2001). In this test the mouse is put in a beaker filled with water and the time spent struggling, swimming and floating is measured, with the time spent floating—when the mouse stops struggling to swim—being used as a behavioral correlate of depression.

[3] = tested on: patients with severe major depressive disorder; conditions: 490 patients; daily oral escitalopram 20 mg and gaboxadol 5 mg or 10 mg; cited from earlier work
insomnia = conditions: three-month efficacy study; cited from earlier work
mice = test: Onset of sedation (immobility) in the open field test (OFT); format: in vivo
rodent = test: d-amphetamine-induced hyperlocomotion (rodent model of mania); format: in vivo; conditions: gaboxadol at 3 mg/kg alone
GABAA receptor = conditions: in vivo; cited from earlier work
cytochrome P450s (CYPs) = conditions: cited from earlier work
[4] = 20 mg dose; cited from earlier work
c-fos = test: Pharmacomapping: whole-brain drug-evoked c-fos activation; conditions: for brain activation of each drug alone: gaboxadol at 3 mg/kg alone, ketamine at 6 mg/kg alone; for brain activation compared with gaboxadol: BSTrh; for brain activation compared with non-deuterated gaboxadol at the same dose: 2.5 hour post administration
Description: (A) Mice are treated with a drug or vehicle solution for the control group using either intraperitoneal (i.p.), per oral (p.o.). subcutaneous (s.c.), intramuscular (i.m.) or intravenous (i.v.) delivery. […] (C) After that period the mice are killed, the c-fos induction is visualized using whole-brain immunostaining, the brains are chemically cleared and finally imaged by light-sheet fluorescent microscopy (LSFM). (D) The whole-brain scans are represented as serial section datasets typically with XYZ resolution of 4×4×5 microns. (E) The c-fos+ cells are detected in these datasets using custom trained machine learning algorithms. (F) The whole-brain distribution of the detected c-fos+ cells is represented in 3D as a spatial map of centroid points in the 3D space of the mouse brain. (G) This 3D map distribution is registered to a reference mouse brain and spatially voxelized using overlapping 150-micron sphere voxels.
At 2.5 hour post administration, the mice were euthanized and brains were immediately preserved by 4% paraformaldehyde (PFA).

[5] = cited from earlier work

Oc1noc2c1CCNC2 [gaboxadol, 4,5,6,7-tetrahydroisoxazolo (5,4-c) pyridin-3-ol]
adverse side-effects in clinical trials [1]: no significant adverse side-effects | whole head MEG planar gradiometer increase in combined delta, theta and alpha activity [2]: ≥ +3 | time spent floating (immobility) compared to vehicle treated control group (mouse): significantly reduced the time spent in floating; also recorded: nearly identical behavioral effect as the ketamine group | benefit of oral gaboxadol added to escitalopram [3]: no additional benefit relative to escitalopram alone | effects in sleep onset and sleep maintenance (insomnia): failed to show significant effects in sleep onset and sleep maintenance | onset of sedation (start of immobility) (mice): 15 min | effect on amphetamine-induced hyperlocomotion (rodent): only modestly | GABAA receptor saturation level (blood level) (GABAA receptor): over 900 ng/ml | metabolism by CYPs (cytochrome P450s (CYPs)): not metabolized by CYPs | AUC0-∞ [4]: about 900 ng*hr/ml | Cmax [4]: 900 ng/mL | plasma Tmax [4]: ≤ 1.5 h | whole-brain activation pattern compared with ketamine (c-fos; gaboxadol 10 mg/kg vs ketamine 10 mg/kg): very similar brain activation as ketamine | brain activation of each drug alone (c-fos): neither gaboxadol at 3 mg/kg nor ketamine at 6 mg/kg alone evoked any brain activation detectable | brain activation of each compound alone (c-fos; lithium at 150 mg/kg alone, gaboxadol at 6 mg/kg alone): moderate brain activation on their own

[2H]C1([2H])NC([2H])([2H])C([2H])([2H])c2c1o[nH]c2=O [d6-gaboxadol, 4,5,6,7-tetrahydroisoxazolo[5,4-c]pyridin-3(2H)-one-4,4,5,5,7,7-d6]
onset of sedation (start of immobility) (mice): 11 min | brain activation compared with gaboxadol (c-fos; 6 mg per kg, GU, VISC, AI (AId, AIp), TEa, CLA, BSTa, LC): higher brain activation than gaboxadol | brain activation compared with gaboxadol (c-fos; 10 mg per kg, ACA (ACAd, ACAv), ILA, GU, VISC, AI, TEa, CLA, BSTa): more efficacious in evoking brain activation than gaboxadol | brain activation compared with gaboxadol (c-fos; 20 mg per kg, BSTa, BSTov, BSTp, LC, CP, STRv (ACB, OT)): higher brain activation than gaboxadol | brain activation compared with non-deuterated gaboxadol at the same dose (c-fos; 6, 10 and 20 mg per kg i.p.): considerably higher brain activation than non-deuterated gaboxadol

CNC1(c2ccccc2Cl)CCCCC1=O (stereo not shown) [ketamine]
time spent floating (immobility) compared to vehicle treated control group (mouse): significantly reduced the time spent in floating; also recorded: significantly decreases the time the drug treated mice spent floating | whole-brain activation pattern (c-fos; acute single dose 10 mg/kg, many cortical areas and midline thalamic nuclei): very robust and broad activation | whole-brain activation pattern (c-fos; acute single dose 5 and 100 mg/kg): modest activation | brain activation of each drug alone (c-fos): neither gaboxadol at 3 mg/kg nor ketamine at 6 mg/kg alone evoked any brain activation detectable

[2H]C1([2H])NCCc2c1o[nH]c2=O [d2-gaboxadol 7,7, 4,5,6,7-tetrahydroisoxazolo[5,4-c]pyridin-3(2H)-one-7,7-d2]
onset of sedation (start of immobility) (mice): 13 min | onset of sedation (start of immobility) (mice; listed as d2-gaboxadol): 13 to 14 min | brain activation compared with non-deuterated gaboxadol at the same dose (c-fos; 6 mg/kg i.p., ORBm, ILA, ACAd, AI, GU, VISC, CLA, LSr, BSTa): considerably higher brain activation than non-deuterated gaboxadol | brain activation compared with non-deuterated gaboxadol at the same dose (c-fos; 6 mg/kg i.p., ORBm, ILA, ACAd, AI, GU, VISC, CLA, LSr, BSTa, listed as d2-gaboxadol): considerably stronger | enhancement of synergies with lithium compared with non-deuterated gaboxadol (c-fos; 6 mg/kg with lithium at 150 mg/kg (FIG. 38)): significantly stronger enhancement of synergies with lithium than is found with non-deuterated gaboxadol | level of brain activation compared with the same doses of non-deuterated gaboxadol (c-fos; 6, 10 and in some cases 20 mg/kg, certain brain areas (e.g. ILA and CP)): higher than the level of activation obtained by the same doses of non-deuterated gaboxadol | dose of non-deuterated gaboxadol with equivalent/comparable brain activation (c-fos; d2-gaboxadol 7,7 at 6 mg/kg, mice, listed as ring carbon deuterated gaboxadol (7,7-d2), 6 mg/kg): 10 to 20 mg/kg

[Li] [lithium]
typical therapeutic concentration in the serum ([5]; acute treatment of manic episodes): 0.6 to 1.2 mmol/L | serum concentration associated with mild toxicity ([5]; in vivo): 1200 to 2500 µM | serum concentration that can be life-threatening ([5]; in vivo): greater than 3.5 mmol/L
